Assays:
Assay in all cases: KINOMEscan competition binding
Conditions in all cases: compound 10.0 µM
PI4KB (human) = PI4KB (human) (UniProt Q9UBF8)
NEK11 (human) = NEK11 (human) (UniProt Q8NG66)
EPHB1 (human) = EPHB1 (human) (UniProt P54762)
IKBKE (human) = IKBKE (human) (UniProt Q14164)
PRKCD (human) = PRKCD (human) (UniProt Q05655)
MYLK4 (human) = MYLK4 (human) (UniProt Q86YV6)
CAMK2D (human) = CAMK2D (human) (UniProt Q13557)
MARK4 (human) = MARK4 (human) (UniProt Q96L34)
STK36 (human) = STK36 (human) (UniProt Q9NRP7)
CLK2 (human) = CLK2 (human) (UniProt P49760)
PRKCE (human) = PRKCE (human) (UniProt Q02156)
DYRK2 (human) = DYRK2 (human) (UniProt Q92630)
MAP3K12 (human) = MAP3K12 (human) (UniProt Q12852)
CDK8 (human) = CDK8 (human) (UniProt P49336)
AAK1 (human) = AAK1 (human) (UniProt Q2M2I8)
AAK1 (human), sequence (Q2M2I8 whole entry, looked up): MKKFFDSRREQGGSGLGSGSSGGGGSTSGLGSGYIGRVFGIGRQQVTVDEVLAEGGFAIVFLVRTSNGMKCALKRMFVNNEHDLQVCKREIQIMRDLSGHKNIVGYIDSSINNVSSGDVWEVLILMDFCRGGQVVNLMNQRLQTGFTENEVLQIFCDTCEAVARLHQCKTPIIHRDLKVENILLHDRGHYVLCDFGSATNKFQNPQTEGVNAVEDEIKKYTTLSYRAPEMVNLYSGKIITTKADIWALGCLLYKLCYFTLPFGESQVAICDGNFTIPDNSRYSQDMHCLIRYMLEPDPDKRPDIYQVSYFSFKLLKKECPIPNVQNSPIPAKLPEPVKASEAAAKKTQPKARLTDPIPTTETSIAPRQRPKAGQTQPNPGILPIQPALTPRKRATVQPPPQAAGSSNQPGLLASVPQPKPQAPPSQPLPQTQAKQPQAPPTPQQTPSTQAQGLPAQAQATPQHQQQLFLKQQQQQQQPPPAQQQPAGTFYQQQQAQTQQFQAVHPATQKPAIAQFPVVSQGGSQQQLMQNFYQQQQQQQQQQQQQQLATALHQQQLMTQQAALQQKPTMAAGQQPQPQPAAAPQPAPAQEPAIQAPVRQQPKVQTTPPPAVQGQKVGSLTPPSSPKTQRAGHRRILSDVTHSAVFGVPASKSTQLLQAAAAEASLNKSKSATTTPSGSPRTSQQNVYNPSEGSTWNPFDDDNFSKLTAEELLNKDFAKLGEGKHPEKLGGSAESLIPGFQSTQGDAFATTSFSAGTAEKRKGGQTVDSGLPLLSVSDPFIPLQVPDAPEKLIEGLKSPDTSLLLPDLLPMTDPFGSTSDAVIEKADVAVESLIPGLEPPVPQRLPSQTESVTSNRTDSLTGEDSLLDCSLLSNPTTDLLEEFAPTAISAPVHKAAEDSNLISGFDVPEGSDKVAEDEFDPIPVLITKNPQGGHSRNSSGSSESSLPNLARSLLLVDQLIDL

[1] = test system: ABL1 (human), P00519 [Y253F]
BMPR2 (human) = BMPR2 (human) (UniProt Q13873)
CDK9 (human) = CDK9 (human) (UniProt P50750)
GSK3B (human) = GSK3B (human) (UniProt P49841)
MAP3K15 (human) = MAP3K15 (human) (UniProt Q6ZN16)
AKT1 (human) = AKT1 (human) (UniProt P31749)
PIK3CB (human) = PIK3CB (human) (UniProt P42338)
ULK1 (human) = ULK1 (human) (UniProt O75385)
CDK2 (human) = CDK2 (human) (UniProt P24941)
MAPK3 (human) = MAPK3 (human) (UniProt P27361)
PRKD2 (human) = PRKD2 (human) (UniProt Q9BZL6)
PRKG2 (human) = PRKG2 (human) (UniProt Q13237)
RIOK1 (human) = RIOK1 (human) (UniProt Q9BRS2)
IGF1R (human) = IGF1R (human) (UniProt P08069)
TEC (human) = TEC (human) (UniProt P42680)
TEC (human), sequence (P42680 whole entry, looked up): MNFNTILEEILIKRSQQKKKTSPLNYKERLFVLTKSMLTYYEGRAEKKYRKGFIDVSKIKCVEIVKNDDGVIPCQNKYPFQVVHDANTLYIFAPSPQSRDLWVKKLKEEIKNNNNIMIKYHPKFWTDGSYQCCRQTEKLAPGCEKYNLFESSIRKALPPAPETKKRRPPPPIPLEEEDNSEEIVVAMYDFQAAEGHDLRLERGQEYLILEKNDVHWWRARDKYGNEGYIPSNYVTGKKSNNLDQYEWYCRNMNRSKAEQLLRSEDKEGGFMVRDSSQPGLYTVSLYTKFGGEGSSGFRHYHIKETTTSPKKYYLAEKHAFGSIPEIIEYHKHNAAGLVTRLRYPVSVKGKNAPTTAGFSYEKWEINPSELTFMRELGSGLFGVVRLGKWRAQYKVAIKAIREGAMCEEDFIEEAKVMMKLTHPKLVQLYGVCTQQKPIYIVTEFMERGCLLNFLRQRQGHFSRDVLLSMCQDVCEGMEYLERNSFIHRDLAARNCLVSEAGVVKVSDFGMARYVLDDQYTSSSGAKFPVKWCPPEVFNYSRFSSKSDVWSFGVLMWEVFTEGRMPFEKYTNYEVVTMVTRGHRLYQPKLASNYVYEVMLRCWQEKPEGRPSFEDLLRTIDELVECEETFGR

CDK5 (human) = CDK5 (human) (UniProt Q00535)
CDK5 (human), sequence (Q00535 whole entry, looked up): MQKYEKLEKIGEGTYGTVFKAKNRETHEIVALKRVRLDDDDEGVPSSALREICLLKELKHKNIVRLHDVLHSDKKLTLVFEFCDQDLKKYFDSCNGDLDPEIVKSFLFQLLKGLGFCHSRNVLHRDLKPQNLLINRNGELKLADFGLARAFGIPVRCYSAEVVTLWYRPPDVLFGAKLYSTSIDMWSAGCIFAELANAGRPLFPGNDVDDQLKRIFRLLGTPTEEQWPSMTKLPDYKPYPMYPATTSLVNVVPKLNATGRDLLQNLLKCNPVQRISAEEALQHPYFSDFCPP

RAF1 (human) = RAF1 (human) (UniProt P04049)
RAF1 (human), sequence (P04049 whole entry, looked up): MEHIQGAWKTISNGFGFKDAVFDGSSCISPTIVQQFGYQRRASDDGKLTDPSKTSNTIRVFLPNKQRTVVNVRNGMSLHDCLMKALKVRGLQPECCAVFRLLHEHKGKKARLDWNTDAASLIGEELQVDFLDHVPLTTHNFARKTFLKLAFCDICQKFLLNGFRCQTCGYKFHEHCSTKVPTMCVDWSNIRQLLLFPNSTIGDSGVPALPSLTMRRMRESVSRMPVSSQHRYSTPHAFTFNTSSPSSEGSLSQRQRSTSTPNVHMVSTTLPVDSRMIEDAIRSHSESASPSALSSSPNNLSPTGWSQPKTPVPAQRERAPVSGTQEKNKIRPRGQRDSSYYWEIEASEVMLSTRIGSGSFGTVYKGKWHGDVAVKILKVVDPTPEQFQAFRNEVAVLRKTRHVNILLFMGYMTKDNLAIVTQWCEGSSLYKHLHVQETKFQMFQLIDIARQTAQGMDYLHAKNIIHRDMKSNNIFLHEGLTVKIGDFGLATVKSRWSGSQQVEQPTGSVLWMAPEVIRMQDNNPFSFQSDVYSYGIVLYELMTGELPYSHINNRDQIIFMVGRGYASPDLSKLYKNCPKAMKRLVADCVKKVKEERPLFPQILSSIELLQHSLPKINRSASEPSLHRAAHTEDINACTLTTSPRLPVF

CSNK1G2 (human) = CSNK1G2 (human) (UniProt P78368)
HUNK (human) = HUNK (human) (UniProt P57058)
MST1R (human) = MST1R (human) (UniProt Q04912)
PRKD1 (human) = PRKD1 (human) (UniProt Q15139)
PTK2B (human) = PTK2B (human) (UniProt Q14289)
PTK2B (human), sequence (Q14289 whole entry, looked up): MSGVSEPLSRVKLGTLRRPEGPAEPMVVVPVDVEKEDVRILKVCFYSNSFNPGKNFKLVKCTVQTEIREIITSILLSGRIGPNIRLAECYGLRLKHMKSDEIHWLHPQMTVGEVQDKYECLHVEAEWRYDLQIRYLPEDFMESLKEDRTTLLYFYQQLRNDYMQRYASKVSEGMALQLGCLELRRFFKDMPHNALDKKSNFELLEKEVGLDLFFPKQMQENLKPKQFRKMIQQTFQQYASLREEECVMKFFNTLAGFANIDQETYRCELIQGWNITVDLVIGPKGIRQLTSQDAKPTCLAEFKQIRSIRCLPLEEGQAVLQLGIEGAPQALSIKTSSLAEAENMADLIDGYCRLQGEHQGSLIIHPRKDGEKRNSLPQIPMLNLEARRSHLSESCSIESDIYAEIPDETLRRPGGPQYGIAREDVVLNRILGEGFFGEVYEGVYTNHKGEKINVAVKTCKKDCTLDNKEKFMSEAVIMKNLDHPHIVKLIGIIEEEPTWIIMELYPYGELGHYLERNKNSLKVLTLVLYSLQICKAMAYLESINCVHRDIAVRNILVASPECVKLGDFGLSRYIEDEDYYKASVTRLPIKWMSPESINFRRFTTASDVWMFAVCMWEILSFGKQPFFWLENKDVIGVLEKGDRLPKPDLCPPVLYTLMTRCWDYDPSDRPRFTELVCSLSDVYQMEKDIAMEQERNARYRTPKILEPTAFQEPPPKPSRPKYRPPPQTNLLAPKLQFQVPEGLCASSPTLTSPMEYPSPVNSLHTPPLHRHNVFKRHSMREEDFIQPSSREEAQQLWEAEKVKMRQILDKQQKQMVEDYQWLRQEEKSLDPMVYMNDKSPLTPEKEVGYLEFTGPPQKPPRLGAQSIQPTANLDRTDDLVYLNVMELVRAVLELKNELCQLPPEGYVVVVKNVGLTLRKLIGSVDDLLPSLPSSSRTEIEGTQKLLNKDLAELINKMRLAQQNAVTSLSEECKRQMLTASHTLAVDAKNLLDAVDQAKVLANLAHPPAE

NEK9 (human) = NEK9 (human) (UniProt Q8TD19)
CDK19 (human) = CDK19 (human) (UniProt Q9BWU1)
TRPM6 (human) = TRPM6 (human) (UniProt Q9BX84)

NEK11 (human), sequence (Q8NG66 whole entry, looked up): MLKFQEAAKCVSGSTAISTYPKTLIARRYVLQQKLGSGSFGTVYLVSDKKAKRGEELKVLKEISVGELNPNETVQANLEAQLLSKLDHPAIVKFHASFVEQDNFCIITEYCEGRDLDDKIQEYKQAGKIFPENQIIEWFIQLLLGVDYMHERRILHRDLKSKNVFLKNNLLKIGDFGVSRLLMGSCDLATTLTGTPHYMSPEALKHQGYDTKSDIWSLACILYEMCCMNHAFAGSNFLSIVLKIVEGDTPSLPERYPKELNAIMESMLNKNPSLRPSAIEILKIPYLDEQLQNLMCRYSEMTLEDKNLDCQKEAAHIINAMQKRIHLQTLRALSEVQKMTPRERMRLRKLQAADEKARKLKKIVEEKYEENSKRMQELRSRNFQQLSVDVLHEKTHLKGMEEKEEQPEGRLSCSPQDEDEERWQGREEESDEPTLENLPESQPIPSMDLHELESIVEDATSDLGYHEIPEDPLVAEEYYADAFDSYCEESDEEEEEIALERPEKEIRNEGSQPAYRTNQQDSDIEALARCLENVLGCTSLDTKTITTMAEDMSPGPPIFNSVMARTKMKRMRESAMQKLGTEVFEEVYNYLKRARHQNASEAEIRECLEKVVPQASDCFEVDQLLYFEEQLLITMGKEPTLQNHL
PI4KB (human), sequence (Q9UBF8 whole entry, looked up): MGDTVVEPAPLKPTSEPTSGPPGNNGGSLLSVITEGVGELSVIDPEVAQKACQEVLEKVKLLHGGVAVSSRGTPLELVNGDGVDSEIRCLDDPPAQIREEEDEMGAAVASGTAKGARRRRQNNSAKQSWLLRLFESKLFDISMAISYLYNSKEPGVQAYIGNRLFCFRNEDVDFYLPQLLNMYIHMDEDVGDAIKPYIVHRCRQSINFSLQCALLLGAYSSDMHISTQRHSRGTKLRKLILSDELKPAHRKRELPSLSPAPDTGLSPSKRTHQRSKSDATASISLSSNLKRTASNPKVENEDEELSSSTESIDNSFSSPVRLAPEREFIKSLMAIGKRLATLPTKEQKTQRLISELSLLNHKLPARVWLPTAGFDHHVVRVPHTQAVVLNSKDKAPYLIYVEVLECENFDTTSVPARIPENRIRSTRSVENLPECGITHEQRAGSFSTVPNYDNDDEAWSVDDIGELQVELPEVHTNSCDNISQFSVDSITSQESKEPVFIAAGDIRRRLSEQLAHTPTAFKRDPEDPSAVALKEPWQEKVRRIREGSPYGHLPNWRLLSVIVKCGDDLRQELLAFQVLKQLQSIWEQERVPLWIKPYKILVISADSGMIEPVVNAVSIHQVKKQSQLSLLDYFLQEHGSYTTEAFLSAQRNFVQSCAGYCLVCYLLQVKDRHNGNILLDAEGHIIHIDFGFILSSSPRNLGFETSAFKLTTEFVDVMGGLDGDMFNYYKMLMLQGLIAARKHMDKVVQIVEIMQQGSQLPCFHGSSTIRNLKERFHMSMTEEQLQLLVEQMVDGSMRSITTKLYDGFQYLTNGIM

`O=c1cc(N2CCOCC2)oc2c(-c3cccc4c3sc3ccccc34)cccc12` gave a kinase still bound, per cent of control (PI4KB (human)) of 100%, a kinase still bound, per cent of control (NEK11 (human)) of 100% and a kinase still bound, per cent of control (EPHB1 (human)) of 100%. The kinase still bound, per cent of control (IKBKE (human)) was 100%, the kinase still bound, per cent of control (PRKCD (human)) was 80% and the kinase still bound, per cent of control (MYLK4 (human)) was 100%. For the same molecule, the kinase still bound, per cent of control (CAMK2D (human)) was 80%, the kinase still bound, per cent of control (MARK4 (human)) was 100% and the kinase still bound, per cent of control (STK36 (human)) was 100%. It also gave a kinase still bound, per cent of control (CLK2 (human)) of 65%, a kinase still bound, per cent of control (PRKCE (human)) of 100% and a kinase still bound, per cent of control (DYRK2 (human)) of 100%. It also gave a kinase still bound, per cent of control (MAP3K12 (human)) of 90%, a kinase still bound, per cent of control (CDK8 (human)) of 100% and a kinase still bound, per cent of control (AAK1 (human)) of 87%. The kinase still bound, per cent of control [1] was 100%, the kinase still bound, per cent of control (BMPR2 (human)) was 83% and the kinase still bound, per cent of control (CDK9 (human)) was 98%. For the same molecule, the kinase still bound, per cent of control (GSK3B (human)) was 44%, the kinase still bound, per cent of control (MAP3K15 (human)) was 100% and the kinase still bound, per cent of control (AKT1 (human)) was 89%. The kinase still bound, per cent of control (PIK3CB (human)) was 0%, the kinase still bound, per cent of control (ULK1 (human)) was 41% and the kinase still bound, per cent of control (CDK2 (human)) was 75%. For the same molecule, the kinase still bound, per cent of control (MAPK3 (human)) was 100%, the kinase still bound, per cent of control (PRKD2 (human)) was 100% and the kinase still bound, per cent of control (PRKG2 (human)) was 93%. For the same molecule, the kinase still bound, per cent of control (RIOK1 (human)) was 100%, the kinase still bound, per cent of control (IGF1R (human)) was 97% and the kinase still bound, per cent of control (TEC (human)) was 89%. It also gave a kinase still bound, per cent of control (CDK5 (human)) of 100%, a kinase still bound, per cent of control (RAF1 (human)) of 97% and a kinase still bound, per cent of control (CSNK1G2 (human)) of 85%. It also gave a kinase still bound, per cent of control (HUNK (human)) of 75%, a kinase still bound, per cent of control (MST1R (human)) of 97% and a kinase still bound, per cent of control (PRKD1 (human)) of 98%. The kinase still bound, per cent of control (PTK2B (human)) was 94%, the kinase still bound, per cent of control (NEK9 (human)) was 93% and the kinase still bound, per cent of control (CDK19 (human)) was 100%. For the same molecule, the kinase still bound, per cent of control (TRPM6 (human)) was 100%.

In the case of `COCC(=O)NC/C=C/c1ccc2ncnc(Nc3ccc(Oc4ccc(C)nc4)c(C)c3)c2c1`, the kinase still bound, per cent of control (PI4KB (human)) is reported as 100%, the kinase still bound, per cent of control (NEK11 (human)) is reported as 100% and the kinase still bound, per cent of control (EPHB1 (human)) is reported as 100%. It also gave a kinase still bound, per cent of control (IKBKE (human)) of 100%, a kinase still bound, per cent of control (PRKCD (human)) of 87% and a kinase still bound, per cent of control (MYLK4 (human)) of 100%. It also gave a kinase still bound, per cent of control (CAMK2D (human)) of 100%, a kinase still bound, per cent of control (MARK4 (human)) of 100% and a kinase still bound, per cent of control (STK36 (human)) of 100%. For the same molecule, the kinase still bound, per cent of control (CLK2 (human)) was 75%, the kinase still bound, per cent of control (PRKCE (human)) was 100% and the kinase still bound, per cent of control (DYRK2 (human)) was 100%. It also gave a kinase still bound, per cent of control (MAP3K12 (human)) of 92%, a kinase still bound, per cent of control (CDK8 (human)) of 3% and a kinase still bound, per cent of control (AAK1 (human)) of 100%. For the same molecule, the kinase still bound, per cent of control (BMPR2 (human)) was 73%, the kinase still bound, per cent of control (CDK9 (human)) was 100% and the kinase still bound, per cent of control (GSK3B (human)) was 68%. For the same molecule, the kinase still bound, per cent of control (MAP3K15 (human)) was 100%, the kinase still bound, per cent of control (AKT1 (human)) was 100% and the kinase still bound, per cent of control (PIK3CB (human)) was 100%. It also gave a kinase still bound, per cent of control (ULK1 (human)) of 47%, a kinase still bound, per cent of control (CDK2 (human)) of 92% and a kinase still bound, per cent of control (MAPK3 (human)) of 95%. It also gave a kinase still bound, per cent of control (PRKD2 (human)) of 97%, a kinase still bound, per cent of control (PRKG2 (human)) of 100% and a kinase still bound, per cent of control (RIOK1 (human)) of 91%. The kinase still bound, per cent of control (IGF1R (human)) was 83%, the kinase still bound, per cent of control (TEC (human)) was 73% and the kinase still bound, per cent of control (CDK5 (human)) was 100%. The kinase still bound, per cent of control (RAF1 (human)) was 100%, the kinase still bound, per cent of control (CSNK1G2 (human)) was 100% and the kinase still bound, per cent of control (HUNK (human)) was 70%. The kinase still bound, per cent of control (MST1R (human)) was 100%, the kinase still bound, per cent of control (PRKD1 (human)) was 85% and the kinase still bound, per cent of control (PTK2B (human)) was 80%. For the same molecule, the kinase still bound, per cent of control (NEK9 (human)) was 82%, the kinase still bound, per cent of control (CDK19 (human)) was 0.5% and the kinase still bound, per cent of control (TRPM6 (human)) was 100%.

With `N#CCNC(=O)c1ccc(-c2ccnc(Nc3ccc(N4CCOCC4)cc3)n2)cc1` the kinase still bound, per cent of control (PI4KB (human)) was 17%, the kinase still bound, per cent of control (NEK11 (human)) was 100% and the kinase still bound, per cent of control (EPHB1 (human)) was 91%. For the same molecule, the kinase still bound, per cent of control (IKBKE (human)) was 5.2%, the kinase still bound, per cent of control (PRKCD (human)) was 54% and the kinase still bound, per cent of control (MYLK4 (human)) was 0%. For the same molecule, the kinase still bound, per cent of control (CAMK2D (human)) was 34%, the kinase still bound, per cent of control (MARK4 (human)) was 42% and the kinase still bound, per cent of control (STK36 (human)) was 95%. The kinase still bound, per cent of control (CLK2 (human)) was 7.4%, the kinase still bound, per cent of control (PRKCE (human)) was 59% and the kinase still bound, per cent of control (DYRK2 (human)) was 76%. It also gave a kinase still bound, per cent of control (MAP3K12 (human)) of 100%, a kinase still bound, per cent of control (CDK8 (human)) of 100% and a kinase still bound, per cent of control (AAK1 (human)) of 3.9%. The kinase still bound, per cent of control [1] was 61%, the kinase still bound, per cent of control (BMPR2 (human)) was 100% and the kinase still bound, per cent of control (CDK9 (human)) was 55%. The kinase still bound, per cent of control (MAP3K15 (human)) was 68%, the kinase still bound, per cent of control (AKT1 (human)) was 100% and the kinase still bound, per cent of control (PIK3CB (human)) was 100%. For the same molecule, the kinase still bound, per cent of control (ULK1 (human)) was 40%, the kinase still bound, per cent of control (CDK2 (human)) was 55% and the kinase still bound, per cent of control (MAPK3 (human)) was 100%. For the same molecule, the kinase still bound, per cent of control (PRKD2 (human)) was 43%, the kinase still bound, per cent of control (PRKG2 (human)) was 100% and the kinase still bound, per cent of control (RIOK1 (human)) was 1%. It also gave a kinase still bound, per cent of control (IGF1R (human)) of 100%, a kinase still bound, per cent of control (TEC (human)) of 100% and a kinase still bound, per cent of control (CDK5 (human)) of 100%. For the same molecule, the kinase still bound, per cent of control (RAF1 (human)) was 100%, the kinase still bound, per cent of control (CSNK1G2 (human)) was 100% and the kinase still bound, per cent of control (HUNK (human)) was 100%. For the same molecule, the kinase still bound, per cent of control (MST1R (human)) was 100%, the kinase still bound, per cent of control (PRKD1 (human)) was 22% and the kinase still bound, per cent of control (PTK2B (human)) was 86%. It also gave a kinase still bound, per cent of control (NEK9 (human)) of 9.4%, a kinase still bound, per cent of control (CDK19 (human)) of 100% and a kinase still bound, per cent of control (TRPM6 (human)) of 100%.

`C[C@@H](Oc1cc(-c2cnn(C3CCNCC3)c2)cnc1N)c1c(Cl)ccc(F)c1Cl` was tested, and the kinase still bound, per cent of control (PI4KB (human)) was 100%, the kinase still bound, per cent of control (NEK11 (human)) was 98% and the kinase still bound, per cent of control (EPHB1 (human)) was 0.15%. The kinase still bound, per cent of control (IKBKE (human)) was 60%, the kinase still bound, per cent of control (PRKCD (human)) was 100% and the kinase still bound, per cent of control (MYLK4 (human)) was 86%. For the same molecule, the kinase still bound, per cent of control (CAMK2D (human)) was 100%, the kinase still bound, per cent of control (MARK4 (human)) was 48% and the kinase still bound, per cent of control (STK36 (human)) was 100%. The kinase still bound, per cent of control (CLK2 (human)) was 68%, the kinase still bound, per cent of control (PRKCE (human)) was 100% and the kinase still bound, per cent of control (DYRK2 (human)) was 9.6%. It also gave a kinase still bound, per cent of control (MAP3K12 (human)) of 9%, a kinase still bound, per cent of control (CDK8 (human)) of 100% and a kinase still bound, per cent of control (AAK1 (human)) of 21%. It also gave a kinase still bound, per cent of control (BMPR2 (human)) of 28%, a kinase still bound, per cent of control (CDK9 (human)) of 88% and a kinase still bound, per cent of control (GSK3B (human)) of 100%. For the same molecule, the kinase still bound, per cent of control (MAP3K15 (human)) was 73%, the kinase still bound, per cent of control (AKT1 (human)) was 100% and the kinase still bound, per cent of control (PIK3CB (human)) was 99%. The kinase still bound, per cent of control (ULK1 (human)) was 1%, the kinase still bound, per cent of control (CDK2 (human)) was 81% and the kinase still bound, per cent of control (MAPK3 (human)) was 100%. For the same molecule, the kinase still bound, per cent of control (PRKD2 (human)) was 3.3%, the kinase still bound, per cent of control (PRKG2 (human)) was 89% and the kinase still bound, per cent of control (RIOK1 (human)) was 3.4%. The kinase still bound, per cent of control (IGF1R (human)) was 0.9%, the kinase still bound, per cent of control (TEC (human)) was 100% and the kinase still bound, per cent of control (CDK5 (human)) was 100%. It also gave a kinase still bound, per cent of control (RAF1 (human)) of 93%, a kinase still bound, per cent of control (CSNK1G2 (human)) of 100% and a kinase still bound, per cent of control (HUNK (human)) of 74%. For the same molecule, the kinase still bound, per cent of control (PRKD1 (human)) was 2.4%, the kinase still bound, per cent of control (NEK9 (human)) was 6.2% and the kinase still bound, per cent of control (CDK19 (human)) was 100%. It also gave a kinase still bound, per cent of control (TRPM6 (human)) of 79%.

Reference: the kinase profiling compilation of Christmann-Franck et al. (2016)
